Assay results: ChEMBL document CHEMBL4406855, “Design, synthesis and biological evaluation of N-(3-(1H-tetrazol-1-yl)phenyl)isonicotinamide derivatives as novel xanthine oxidase inhibitors” (Eur J Med Chem, 2019)

Biological target: Xanthine dehydrogenase/oxidase (Bos taurus, UniProt P80457)
Test: Inhibition of bovine xanthine oxidase assessed as reduction in uric acid formation using xanthine as substrate preincubated for 10 mins followed by substrate addition measured at first 2 mins by spectrophotometric analysis

Sequence of Xanthine dehydrogenase/oxidase (P80457 whole entry): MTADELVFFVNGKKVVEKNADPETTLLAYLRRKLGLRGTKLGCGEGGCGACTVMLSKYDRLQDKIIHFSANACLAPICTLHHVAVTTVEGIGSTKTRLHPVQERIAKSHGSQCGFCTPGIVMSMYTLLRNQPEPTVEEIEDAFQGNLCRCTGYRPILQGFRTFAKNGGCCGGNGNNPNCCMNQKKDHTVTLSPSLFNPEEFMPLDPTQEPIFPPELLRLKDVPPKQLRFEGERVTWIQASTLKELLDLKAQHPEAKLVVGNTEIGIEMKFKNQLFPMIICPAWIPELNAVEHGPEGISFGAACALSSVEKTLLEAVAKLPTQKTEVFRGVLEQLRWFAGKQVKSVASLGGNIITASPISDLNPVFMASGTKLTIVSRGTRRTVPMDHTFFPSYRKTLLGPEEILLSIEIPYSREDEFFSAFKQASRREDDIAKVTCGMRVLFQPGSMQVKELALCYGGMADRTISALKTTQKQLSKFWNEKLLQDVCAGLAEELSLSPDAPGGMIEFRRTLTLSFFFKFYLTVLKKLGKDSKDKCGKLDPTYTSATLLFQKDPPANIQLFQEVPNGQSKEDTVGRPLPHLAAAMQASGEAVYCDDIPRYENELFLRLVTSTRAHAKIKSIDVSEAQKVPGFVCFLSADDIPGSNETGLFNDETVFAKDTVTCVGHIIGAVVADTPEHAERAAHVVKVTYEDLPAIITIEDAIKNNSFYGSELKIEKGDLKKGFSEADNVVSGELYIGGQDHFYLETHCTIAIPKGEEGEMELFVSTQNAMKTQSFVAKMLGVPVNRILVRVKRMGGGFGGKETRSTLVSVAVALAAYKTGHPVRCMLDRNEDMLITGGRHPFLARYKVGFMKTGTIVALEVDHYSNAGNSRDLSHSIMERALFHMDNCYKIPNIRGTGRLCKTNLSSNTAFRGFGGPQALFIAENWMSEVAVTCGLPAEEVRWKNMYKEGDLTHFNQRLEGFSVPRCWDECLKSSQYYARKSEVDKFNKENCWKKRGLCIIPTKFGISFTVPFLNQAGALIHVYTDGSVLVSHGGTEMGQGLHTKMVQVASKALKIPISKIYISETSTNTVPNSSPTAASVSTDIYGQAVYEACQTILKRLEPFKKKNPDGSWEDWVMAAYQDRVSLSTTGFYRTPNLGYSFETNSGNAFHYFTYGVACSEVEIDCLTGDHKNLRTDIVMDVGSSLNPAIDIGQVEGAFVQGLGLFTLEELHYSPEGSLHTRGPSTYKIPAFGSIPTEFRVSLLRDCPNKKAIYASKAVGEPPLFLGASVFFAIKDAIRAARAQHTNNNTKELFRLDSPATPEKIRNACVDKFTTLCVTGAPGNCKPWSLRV

SMILES | IC50 [nM]
N#Cc1ccccc1COc1ccc(NC(=O)c2ccncc2)cc1C#N | 312
N#Cc1cc(-c2n[nH]c(-c3ccncc3)n2)ccn1 [TOPIROXOSTAT] | 21
